Source: paper PMC7004140, “In vitro hepatotoxicity of Petasites hybridus extract (Ze 339) depends on the concentration, the cytochrome activity of the cell system, and the species used” (Phytotherapy Research, 2019)

How the values were obtained:
H-4-II-E cells = assay: WST-1 metabolic activity (cytotoxicity) in H-4-II-E cells; type: cell-based, rat (Rattus norvegicus); conditions: Rattus norvegicus, H4IIE, single constituents, 4 hr
Method: HepG2 and H‐4‐II‐E cells were differentiated for 24 hr. HepaRG cells were directly seeded in precoated 96‐well microtiter plates and were incubated in William's medium with general purpose supplements according to manufacturer's manual until adherence. All cells were treated with Ze 339 (up to 100 μg/ml) or petasin, isopetasin, neopetasin, petasol, isopetasol, petasin mixture, fatty acid mixture, and reconstituted extracts (up to 250 μM) for 4 hr.
In the three cell lines, cytotoxicity was defined as a decrease in metabolic activity of ≥20% in the WST‐1 assay. At the end of the experiment, 10 μl WST‐1 reagent was added to each well. Plates were then incubated for 2 hr to allow for the reduction of WST‐1 reagent. Absorbance was measured using a microplate absorbance reader (Infinite M 200, Tecan Trading Ltd., Switzerland) at 450 nm, reference wavelength of 620 nm. Due to some matrix effect, the lowest concentration (0.02 μg/ml for Ze 339 and 3.9 μM for single constituents and mixtures) of each substance tested was defined as 100% metabolic activity. Results were expressed as percentage of the control metabolic activity, and data were presented as mean values ± SEM (n = 3–6).
Concentration‐response analysis was done using the sigmoidal Hill equation: E(t) = E0 − Emax × C(t)^N/(IC50 ^N + C(t)^N), where E is the effect at time t, E0 the effect at baseline (time = 0), IC50 the concentration yielding 50% of the maximal effect (Emax), and N denotes the sigmoidicity coefficient (Origin 2017 Software). For statistical analysis, analysis of variance with Dunnett's multicomparison test was used to correct for multiplicity of testing (IBM SPSS Statistics software, version 25, IBM Corp., USA). The level of significance was ^* p < .05, ^** p < .01 and ^*** p < .001; NS = no significance.

[1] = Incubation without S9 fraction (solvent or cofactors only, negative controls); type: in vitro ADME; conditions: 20 μM, 60 min, data not shown; for metabolism with cofactors of S9 fraction only (negative control): cofactor only; for metabolism with solvent (negative control): solvent only
Method: (§1) The assay was carried out in triplicate in 1.5 ml glass vials with a final concentration of 20 μM of petasin, isopetasin, and neopetasin. The incubation was performed in a 37°C warm water bath. S9 fractions were thawed slowly on ice. Four different approaches were pursued by testing: (a) petasin, neopetasin, and isopetasin before (0 min) and after 60 min incubations with S9 fraction; (b) petasin, neopetasin, and isopetasin without S9 fraction after 60 min incubation; (c) vehicle as negative controls; and (d) cofactors of S9 fraction after 60‐min incubation.
A mixture of NADPH regeneration systems A (20‐fold) and B (100‐fold), phosphate buffer, and H2O was added, preincubated at 37°C, and shaken gently for 5 min. Afterwards, the recommended amount between 10 and 40 pmol/ml of enzyme or enzyme mixture was added according to manufacturer's instruction and incubated for further 60 min at 37°C and gently shaken. Afterwards, the reactions were stopped by addition of acetonitrile (400 μl). For the control sample, acetonitrile was added at 0 min incubation. The samples were centrifuged for 3 min at 10,000 × g. The supernatant was transferred to high‐performance liquid chromatography vials and analyzed by ultra‐performance liquid chromatography mass spectrometry (UPLC/MS). The UPLC analysis was performed with an UPLC Acquity H Class from Waters (Waters Corporation, Switzerland) including a quaternary high‐pressure gradient pump, an automatic sample injector, and a column thermostat. Chromatographic separation was achieved on an Acquity BEH C18, […], 50 × 2.1 mm column (Waters, Switzerland). The mobile phase consisted of 0.1% formic acid (A) and acetonitrile (B). The initial gradient condition was 10% (B) followed by a step to 90% (B) until 6.0 min. The column temperature was adjusted to 40°C. The flow rate was 0.5 ml/min and the injection volume 5 μl. The mass spectrometry was performed in positive electrospray mode using an ACQUITY QDa mass detector (Waters Corporation, Switzerland). The single ion recording was set to 317.2 Da.

CYP3A4 (human) = biological target: T1, CYP3A4 (human) (Homo sapiens, UniProt P08684); assay: Metabolism by isolated human CYP3A4; type: in vitro ADME; conditions: petasins 20 μM, 60 min
T1 construct: purchased BD Gentest (Switzerland); host or cells: baculovirus expression system
Source text: (§2) The metabolism of petasin, isopetasin, and neopetasin was investigated using three different S9 fractions originating from three different species (isolated from rat, dog, and human liver homogenates containing cytochrome P450 isoforms) and isolated cytochromes of two different species (human and rat; rat analogues of the respective human cytochromes were used). For the expression of the different cytochromes, a baculovirus expression system was used according to supplier's manual. The S9 fractions or respectively single P450 cytochromes were used to mimic the liver metabolism by in vitro incubation.
as §1
(§3) A mixture of NADPH regeneration systems A (20‐fold) and B (100‐fold), phosphate buffer, and H2O was added, preincubated at 37°C, and shaken gently for 5 min. Afterwards, the recommended amount between 10 and 40 pmol/ml of enzyme or enzyme mixture was added according to manufacturer's instruction and incubated for further 60 min at 37°C and gently shaken. Afterwards, the reactions were stopped by addition of acetonitrile (400 μl). For the control sample, acetonitrile was added at 0 min incubation. The samples were centrifuged for 3 min at 10,000 × g. The supernatant was transferred to high‐performance liquid chromatography vials and analyzed by ultra‐performance liquid chromatography mass spectrometry (UPLC/MS). The UPLC analysis was performed with an UPLC Acquity H Class from Waters (Waters Corporation, Switzerland) including a quaternary high‐pressure gradient pump, an automatic sample injector, and a column thermostat. […]

CYP2C11 (rat) = biological target: T2, CYP2C11 (rat) (Rattus norvegicus, UniProt P08683); assay: Metabolism by isolated rat CYP2C11; type: in vitro ADME; conditions: petasins 20 μM, 60 min
T2 construct: purchased BD Gentest (Switzerland); host or cells: baculovirus expression system
T2 sequence (P08683 1-500): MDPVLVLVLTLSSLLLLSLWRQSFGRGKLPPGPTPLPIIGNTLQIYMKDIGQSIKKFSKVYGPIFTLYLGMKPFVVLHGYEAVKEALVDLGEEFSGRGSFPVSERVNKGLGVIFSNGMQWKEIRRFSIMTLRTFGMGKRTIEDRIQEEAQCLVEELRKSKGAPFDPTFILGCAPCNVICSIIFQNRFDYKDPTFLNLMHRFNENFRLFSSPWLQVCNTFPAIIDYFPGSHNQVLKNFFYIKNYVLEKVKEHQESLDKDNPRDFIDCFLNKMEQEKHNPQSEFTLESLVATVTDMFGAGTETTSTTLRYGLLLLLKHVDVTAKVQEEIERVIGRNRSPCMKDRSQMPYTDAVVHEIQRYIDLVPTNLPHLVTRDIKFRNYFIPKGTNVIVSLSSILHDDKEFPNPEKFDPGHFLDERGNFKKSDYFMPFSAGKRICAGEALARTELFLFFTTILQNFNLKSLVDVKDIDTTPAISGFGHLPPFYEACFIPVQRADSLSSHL
Source text: as §2, §1, §3

T1 sequence (P08684 whole entry): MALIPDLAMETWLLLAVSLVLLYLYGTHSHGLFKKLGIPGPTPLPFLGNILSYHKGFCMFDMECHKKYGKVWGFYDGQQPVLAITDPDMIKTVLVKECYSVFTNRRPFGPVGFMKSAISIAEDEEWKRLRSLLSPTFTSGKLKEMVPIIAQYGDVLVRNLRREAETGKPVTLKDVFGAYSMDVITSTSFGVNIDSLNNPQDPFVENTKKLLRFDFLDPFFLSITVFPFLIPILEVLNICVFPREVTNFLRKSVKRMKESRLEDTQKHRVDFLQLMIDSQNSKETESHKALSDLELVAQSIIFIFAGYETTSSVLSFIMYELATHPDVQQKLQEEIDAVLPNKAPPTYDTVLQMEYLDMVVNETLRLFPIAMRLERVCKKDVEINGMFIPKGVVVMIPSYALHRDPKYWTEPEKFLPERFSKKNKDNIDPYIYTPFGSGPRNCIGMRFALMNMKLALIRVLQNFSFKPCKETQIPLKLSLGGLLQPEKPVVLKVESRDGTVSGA

Row | metabolism with cofactors of S9 fraction only (negative control) [1] [%] | metabolism with solvent (negative control) [1] [%] | extent of metabolism by CYP3A4 (human) (CYP3A4 (human)) [%] | extent of metabolism by CYP2C11 (rat) (CYP2C11 (rat)) [%] | SMILES | EC50 (H-4-II-E cells) [µM]
1 | 10 | < 1 | 34 | 55 | C=C(C)[C@@H]1C[C@@]2(C)C(=CC1=O)CC[C@@H](OC(=O)/C(C)=C\C)[C@@H]2C [petasin] | 132
2 | < 1 | < 1 | 87 | 84 | C/C=C(/C)C(=O)O[C@@H]1CCC2=CC(=O)C(=C(C)C)C[C@]2(C)[C@H]1C [isopetasin] | 110
3 | < 1 | < 1 | 86 | 74 | C=C(C)[C@H]1C[C@@]2(C)C(=CC1=O)CC[C@@H](OC(=O)/C(C)=C\C)[C@@H]2C [neopetasin] | 15.8
